# Experimental data: patent US8013156B2 (Exelixis, Inc., priority 2003, dated 2011)
# Target: Tie-2 (Homo sapiens, UniProt Q02763)
# Experiment: Tie-2 tyrosine kinase activity assay (luciferase/luciferin ATP consumption with pEY substrate, or 33P-ATP incorporation)
# Format: biochemical
# Conditions: human enzyme Tie-2
# Description: One measure of inhibition is Ki. […] The Ki for a compound is determined from the IC50 based on three assumptions. First, only one compound molecule binds to the enzyme and there is no cooperativity. […] Third, the enzymatic rate of the enzyme-inhibitor complex is zero. The rate data (i.e. compound concentration) are fitted to the equation:
# [formula] where V is the observed rate, Vmax, is the rate of the free enzyme, I0 is the inhibitor concentration, E0 is the enzyme concentration, and Kd is the dissociation constant of the enzyme-inhibitor complex.
# Tyrosine kinase activity is determined by 1) measurement of kinase-dependent ATP consumption by in the presence of a generic substrate such as […], tyrosine (pEY), by luciferase/luciferin-mediated chemiluminescence or; 2) incorporation of radioactive phosphate derived from ^33P-ATP into a generic substrate which has been adsorbed onto the well surface of polystyrene microtiter plates. Phosphorylated substrate products are quantified by scintillation spectrometry.
# Inhibition is indicated as IC50 with following key: A=IC50 less than 50 nM, B=IC50 greater than 50 nM, but less than or equal to 1000 nM, C=IC50 greater than 1000 nM, but less than 10,000 nM, D=IC50 10,000 nM or greater, and “-”=no data available. The abbreviation for human enzyme, Tie-2, is defined as tyrosine kinase with immunoglobulin and EGF repeats.
# Sequence of Tie-2 (Q02763 23-1124): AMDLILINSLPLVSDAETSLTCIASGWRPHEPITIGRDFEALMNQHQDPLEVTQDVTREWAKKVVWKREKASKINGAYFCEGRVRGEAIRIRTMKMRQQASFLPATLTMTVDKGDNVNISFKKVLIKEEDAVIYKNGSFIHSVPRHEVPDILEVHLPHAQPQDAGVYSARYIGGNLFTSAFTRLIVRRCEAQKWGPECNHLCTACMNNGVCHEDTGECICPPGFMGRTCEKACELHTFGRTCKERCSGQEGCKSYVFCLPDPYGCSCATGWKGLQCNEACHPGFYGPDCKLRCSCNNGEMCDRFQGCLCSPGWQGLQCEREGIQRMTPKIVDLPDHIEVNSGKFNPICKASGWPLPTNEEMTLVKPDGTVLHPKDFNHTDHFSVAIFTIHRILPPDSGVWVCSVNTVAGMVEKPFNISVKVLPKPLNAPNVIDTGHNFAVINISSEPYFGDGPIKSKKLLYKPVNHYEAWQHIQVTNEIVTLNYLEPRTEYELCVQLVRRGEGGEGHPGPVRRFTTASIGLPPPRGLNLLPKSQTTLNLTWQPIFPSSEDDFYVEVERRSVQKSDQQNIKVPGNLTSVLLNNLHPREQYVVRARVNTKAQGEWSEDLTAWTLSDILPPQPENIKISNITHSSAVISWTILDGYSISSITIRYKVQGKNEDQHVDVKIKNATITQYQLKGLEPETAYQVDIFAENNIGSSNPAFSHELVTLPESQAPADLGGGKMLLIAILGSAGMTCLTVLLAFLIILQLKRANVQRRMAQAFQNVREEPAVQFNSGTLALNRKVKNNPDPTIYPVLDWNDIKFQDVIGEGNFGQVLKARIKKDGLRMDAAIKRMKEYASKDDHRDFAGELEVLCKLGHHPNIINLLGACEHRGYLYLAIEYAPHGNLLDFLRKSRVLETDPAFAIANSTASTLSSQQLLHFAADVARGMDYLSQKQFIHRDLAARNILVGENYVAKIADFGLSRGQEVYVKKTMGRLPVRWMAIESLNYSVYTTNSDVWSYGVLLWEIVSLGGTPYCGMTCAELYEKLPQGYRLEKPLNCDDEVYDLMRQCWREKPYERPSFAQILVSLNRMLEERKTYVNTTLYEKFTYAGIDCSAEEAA
row,SMILES,IC50
1,"CC(=O)N1CCN(c2ncccc2OCc2ccnc(N)n2)CC1 [Example 207, 4-({[2-(4-acetylpiperazin-1-yl)pyridin-3-yl]oxy}methyl)pyrimidin-2-amine]",≥ 10000 nM
2,"C[C@H]1CN(c2nccnc2OCc2ccncc2)CCN1C(=O)Nc1cccc(C(F)(F)F)c1 [Example 81, (2S)-2-methyl-4-{3-[(pyridin-4-ylmethyl)oxy]pyrazin-2-yl}-N-[3-(trifluoromethyl)phenyl]piperazine-1-carboxamide]",< 50 nM
3,"CCOc1ccccc1NC(=O)N1CCN(c2nsnc2OCc2ccnc(N)n2)CC1 [Example 264, 4-(4-{[(2-aminopyrimidin-4-yl)methyl]oxy}-1,2,5-thiadiazol-3-yl)-N-[2-(ethyloxy)phenyl]piperazine-1-carboxamide]",≥ 10000 nM
4,"CC(=O)Nc1cc(COc2nsnc2N2CCN(C(=O)Nc3cc(C(F)(F)F)cc(C(F)(F)F)c3)CC2)ccn1 [Example 129, 4-[4-({[2-(acetylamino)pyridin-4-yl]methyl}oxy)-1,2,5-thiadiazol-3-yl]-N-[3,5-bis(trifluoromethyl)phenyl]piperazine-1-carboxamide]",< 50 nM
5,"CCc1cccc(NC(=O)N2CCN(c3ncccc3OC(C)c3ccnc(N)n3)CC2)c1 (centres unmarked) [Example 245, 4-(3-{[1-(2-aminopyrimidin-4-yl)ethyl]oxy}pyridin-2-yl)-N-(3-ethylphenyl)piperazine-1-carboxamide]",< 50 nM
6,"CCc1cc(Cl)cc(NC(=O)N2CCN(c3nsnc3OCc3ccnc(N)n3)CC2)c1 [Example 221, 4-(4-{[(2-aminopyrimidin-4-yl)methyl]oxy}-1,2,5-thiadiazol-3-yl)-N-(3-chloro-5-ethylphenyl)piperazine-1-carboxamide]",< 50 nM
7,"O=C(O)c1ccc(COc2nsnc2N2CCN(C(=O)Nc3cc(C(F)(F)F)cc(C(F)(F)F)c3)CC2)cc1 [Example 32, 4-[({4-[4-({[3,5-bis(trifluoromethyl)phenyl]amino}carbonyl)piperazin-1-yl]-1,2,5-thiadiazol-3-yl}oxy)methyl]benzoic acid]",1000 to 10000 nM
8,"Nc1nccc(COc2cccnc2N2CCN(C(=O)Nc3ccc(F)cc3)CC2)n1 [Example 187, 4-(3-{[(2-aminopyrimidin-4-yl)methyl]oxy}pyridin-2-yl)-N-(4-fluorophenyl)piperazine-1-carboxamide]",1000 to 10000 nM
9,"Nc1nccc(COc2nccnc2N2CCN(C(=O)Nc3cc(Cl)cc(C(F)(F)F)c3)CC2)n1 [Example 234, 4-(3-{[(2-aminopyrimidin-4-yl)methyl]oxy}pyrazin-2-yl)-N-[3-chloro-5-(trifluoromethyl)phenyl]piperazine-1-carboxamide]",< 50 nM
10,"CCCCOc1nccc(COc2nsnc2N2CCN(C(=O)Nc3cc(C(F)(F)F)cc(C(F)(F)F)c3)CC2)n1 [Example 137, N-[3,5-bis(trifluoromethyl)phenyl]-4-[4-({[2-(butyloxy)pyrimidin-4-yl]methyl}oxy)-1,2,5-thiadiazol-3-yl]piperazine-1-carboxamide]",≥ 10000 nM
11,"O=C(Nc1cc(C(F)(F)F)cc(C(F)(F)F)c1)NC1CCN(c2nccnc2OCc2ccncc2)C1 (centres unmarked) [Example 67, N-[3,5-bis(trifluoromethyl)phenyl]-N′-(1-{3-[(pyridin-4-ylmethyl)oxy]pyrazin-2-yl}pyrrolidin-3-yl)urea]",50 to 1000 nM
12,"Nc1nccc(COc2cccnc2N2CCN(C(=O)Nc3cccc(C4CC4)c3)CC2)n1 [Example 210, 4-(3-{[(2-aminopyrimidin-4-yl)methyl]oxy}pyridin-2-yl)-N-(3-cyclopropylphenyl)piperazine-1-carboxamide]",< 50 nM
13,"C[C@H]1CN(c2nsnc2OCc2ccncc2)CCN1C(=O)Nc1cc(C(F)(F)F)cc(C(F)(F)F)c1 [Example 57, (2S)-N-[3,5-bis(trifluoromethyl)phenyl]-2-methyl-4-{4-[(pyridin-4-ylmethyl)oxy]-1,2,5-thiadiazol-3-yl}piperazine-1-carboxamide]",50 to 1000 nM

# Continued, values first:
row,IC50,SMILES
1,50 to 1000 nM,CCc1cccc(NC(=O)N2CCN(c3nsnc3OCc3ccncc3)CC2)c1 [Example 7]
2,50 to 1000 nM,"Nc1nccc(COc2cccnc2N2CCN(C(=O)Nc3cccc(F)c3)CC2)n1 [Example 186, 4-(3-{[(2-aminopyrimidin-4-yl)methyl]oxy}pyridin-2-yl)-N-(3-fluorophenyl)piperazine-1-carboxamide]"
3,< 50 nM,"CCc1cc(Br)cc(NC(=O)N2CCN(c3nsnc3OCc3ccnc(N)n3)CC2)c1 [Example 238, 4-(4-{[(2-aminopyrimidin-4-yl)methyl]oxy}-1,2,5-thiadiazol-3-yl)-N-(3-bromo-5-ethylphenyl)piperazine-1-carboxamide]"
4,< 50 nM,"CCc1cccc(NC(=O)N2CCN(c3ncc(Br)cc3OCc3nc(N)ncc3Br)CC2)c1 [Example 194, 4-(3-{[(2-amino-5-bromopyrimidin-4-yl)methyl]oxy}-5-bromopyridin-2-yl)-N-(3-ethylphenyl)piperazine-1-carboxamide]"
5,< 50 nM,"CN(C)CC(=O)Nc1cc(COc2nsnc2N2CCN(C(=O)Nc3cc(C(F)(F)F)cc(C(F)(F)F)c3)CC2)ccn1 [Example 150, N-[3,5-bis(trifluoromethyl)phenyl]-4-{4-[({2-[(N,N-dimethylglycyl)amino]pyridin-4-yl}methyl)oxy]-1,2,5-thiadiazol-3-yl}piperazine-1-carboxamide]"
6,≥ 10000 nM,O=C(Nc1cc(C(F)(F)F)cc(C(F)(F)F)c1)N1CCN(c2nsnc2OCCN2CCOCC2)CC1 [Example 14]
7,< 50 nM,"Nc1nccc(COc2nsnc2N2CCN(C(=O)Nc3cc(F)cc(C(F)(F)F)c3)CC2)n1 [Example 239, 4-(4-{[(2-aminopyrimidin-4-yl)methyl]oxy}-1,2,5-thiadiazol-3-yl)-N-[3-fluoro-5-(trifluoromethyl)phenyl]piperazine-1-carboxamide]"
8,50 to 1000 nM,"Nc1nccc(COc2nsnc2N2CCN(C(=O)Nc3cc(C(F)(F)F)ccc3F)CC2)n1 [Example 232, 4-(4-{[(2-aminopyrimidin-4-yl)methyl]oxy}-1,2,5-thiadiazol-3-yl)-N-[2-fluoro-5-(trifluoromethyl)phenyl]piperazine-1-carboxamide]"
9,50 to 1000 nM,O=C(Nc1cc(C(F)(F)F)cc(C(F)(F)F)c1)N1CCN(c2nsnc2Oc2ccc3[nH]ccc3c2)CC1 [Example 12]
10,50 to 1000 nM,"COc1cccc(NC(=O)N2CCN(c3ncccc3OCc3ccnc(N)n3)CC2)c1 [Example 166, 4-(3-{[(2-aminopyrimidin-4-yl)methyl]oxy}pyridin-2-yl)-N-[3-(methyloxy)phenyl]piperazine-1-carboxamide]"
11,1000 to 10000 nM,"Nc1nccc(COc2nsnc2N2CCN(C(=O)Nc3cccc(F)c3)CC2)n1 [Example 263, 4-(4-{[(2-aminopyrimidin-4-yl)methyl]oxy}-1,2,5-thiadiazol-3-yl)-N-(3-fluorophenyl)piperazine-1-carboxamide]"
12,1000 to 10000 nM,"Nc1nccc(COc2cccnc2N2CCN(CC(=O)Nc3cc(C(F)(F)F)cc(C(F)(F)F)c3)CC2)n1 [Example 177, 2-[4-(3-{[(2-aminopyrimidin-4-yl)methyl]oxy}pyridin-2-yl)piperazin-1-yl]-N-[3,5-bis(trifluoromethyl)phenyl]acetamide]"
13,50 to 1000 nM,"CCc1ccc(F)c(NC(=O)N2CCN(c3nsnc3OCc3ccnc(N)n3)CC2)c1 [Example 222, 4-(4-{[(2-aminopyrimidin-4-yl)methyl]oxy}-1,2,5-thiadiazol-3-yl)-N-(5-ethyl-2-fluorophenyl)piperazine-1-carboxamide]"
